Test results taken from article PMC5117811 (Nature chemical biology, 2016).
Blank lines part the entries; values can stand above or below the compound they belong to.

Key:
BRD4(1) [1] = target: T1, BRD4(1) (Homo sapiens, UniProt O60885); assay: BRD4; assay type: binding; conditions: BRD4(1) AlphaScreen, compared to JQ1
[2] = Plasma pharmacokinetic analyses in CD1 mice; conditions: 50 mg/kg intraperitoneally
MYC = assay: Immunoblot for MYC in MV4; assay type: cell-based, human; conditions: MV4;11 cells
HEXIM1 = assay: Immunoblot for HEXIM1 in MV4; assay type: cell-based, human; conditions: MV4;11 cells, 10 nM, later time points (4–24 hours)
BRD4 = BRD4 (Homo sapiens, UniProt O60885); assay: Immunoblot for BRD4 protein level in MV4; assay type: cell-based; conditions: MV4;11 cells
BRD4(1) [3] = target: T1, BRD4(1); assay: BROMOscan
BRD4(2) = BRD4(2) (Homo sapiens, UniProt O60885); assay: BROMOscan
BRD4(1,2) = BRD4(1,2) (Homo sapiens, UniProt O60885); assay: BROMOscan
[4] = target: BRD4 (full-length, short-iso.) (Homo sapiens, UniProt O60885); assay: BROMOscan

increase in biochemical potency (BRD4(1) [1]): 20 fold
Structure (SMILES): COC(=O)C[C@@H]1N=C(c2ccc(Cl)cc2)c2c(sc(C(=O)NCCOCCNC(=O)c3sc4c(c3C)C(c3ccc(Cl)cc3)=N[C@@H](CC(=O)OC)c3nnc(C)n3-4)c2C)-n2c(C)nnc21 [(2S+2S)-PEG1, Dimethyl 2,2'-((6S,6'S)-(((oxybis(ethane-2,1-diyl))bis(azanediyl))bis(carbonyl))bis(4-(4-chlorophenyl)-3,9-dimethyl-6H-thieno[3,2-f][1,2,4]triazolo[4,3-a][1,4]diazepine-2,6-diyl))diacetate]

PK properties [2]: comparable PK properties to MT1
Structure (SMILES): COC(=O)C[C@@H]1N=C(c2ccc(Cl)cc2)c2c(sc(C(=O)NCCNC(=O)C[C@@H]3N=C(c4ccc(Cl)cc4)c4c(sc(C)c4C)-n4c(C)nnc43)c2C)-n2c(C)nnc21 [(6S+2S)-PEG0, Methyl 2-((S)-4-(4-chlorophenyl)-2-((2-(2-((S)-4-(4-chlorophenyl)-2,3,9-trimethyl-6H-thieno[3,2-f][1,2,4]triazolo[4,3-a][1,4]diazepin-6-yl)acetamido)ethyl)carbamoyl)-3,9-dimethyl-6H-thieno[3,2-f][1,2,4]triazolo[4,3-a][1,4]diazepin-6-yl)acetate]

effect on BRD4 protein stability (degradation) (BRD4): No effect on protein stability
displacement of phage expressing BRD4(1) (BRD4(1) [3]): picomolar
displacement of phage expressing BRD4(2) (BRD4(2)): picomolar
displacement of phage expressing tandem bromodomain construct BRD4(1,2) (BRD4(1,2)): picomolar
displacement of phage expressing full length protein BRD4(full) [4]: picomolar
Structure (SMILES): COC(=O)C[C@@H]1N=C(c2ccc(Cl)cc2)c2c(sc(C(=O)NCCOCCNC(=O)C[C@@H]3N=C(c4ccc(Cl)cc4)c4c(sc(C)c4C)-n4c(C)nnc43)c2C)-n2c(C)nnc21 [(6S+2S)-PEG1, Methyl 2-((S)-4-(4-chlorophenyl)-2-((2-(2-(2-((S)-4-(4-chlorophenyl)-2,3,9-trimethyl-6H-thieno[3,2-f][1,2,4]triazolo[4,3-a][1,4]diazepin-6-yl)acetamido)ethoxy)ethyl)carbamoyl)-3,9-dimethyl-6H-thieno[3,2-f][1,2,4]triazolo[4,3-a][1,4]diazepin-6-yl)acetate]
time of maximum effect on MYC (MYC; 10 nM): 2 h
lowest concentration at which MYC was downregulated (MYC; two hours of treatment): 10 nM
HEXIM1 expression (HEXIM1): upregulation
